Common to all, as to assay: NCI-60 cell line screen, 48 h
In test [1] the test system is MDA-N.
Test [2] deals with RPMI-8226 leukemia.
Test [3] deals with IGROV1 ovarian.
The test system of test [4] is PC-3 prostate.
Test [5] deals with A549 NSCLC.
Test [6] relates to UACC-257 melanoma.
Test [7] has as its system MDA-MB-435.
Test [8] relates to HOP-92 NSCLC.
Test [9] deals with MOLT-4 leukemia.
The test system of test [10] is NCI-H226 lung.
For test [11], the system named is ACHN renal.
In test [12] the test system is MCF7 breast.

“And” between values parts separate entries of the source, which are not always exact repeats. Equal entries are not always repeated.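 Five compound concentrations were applied to cells in 96-well plates for 48 hours; endpoints were derived by simple linear interpolation of the resulting dose-response curve. Abbreviation: GI50, concentration required for 50% inhibition of growth. Definition used: TGI = concentration required for complete inhibition of growth.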 Where only a bound is given, the exact number is not on record here.

As to `CC(C)[C@@H]1NC(=O)[C@@H]2N=C(O[C@H]2C)[C@H](C(C)C)NC(=O)C2N=C1O[C@H]2C`, the TGI in test [1], in test [2], in [3], in [4], in [5] and in [6] was greater than 100 µM in each case. Besides, the TGI in test [7], in test [8], in test [9], in [10], in test [11] and in test [12] was greater than 100 µM throughout.

As for `O=C(NCc1ccccc1Cl)c1c(O)c2ccccc2[nH]c1=O`, the TGI in test [1] was greater than 100 µM; in test [2] it was greater than 100 µM; in test [3], 67.2 µM; in [4], greater than 100 µM; in test [5], greater than 100 µM; in test [6] it was greater than 100 µM. In addition, the TGI in test [7] was greater than 100 µM; in test [8], 58.7 µM; in [9], greater than 100 µM; in [10], greater than 100 µM; in test [12] it was greater than 100 µM.

For the compound `CCC(=C/[C@H](C)C/C=C/C(C)=C/[C@@H](C)C(=O)[C@@H](C)[C@H](O)[C@@H](C)CC)/C=C/[C@H]1CC=CC(=O)O1`, the TGI in test [1] was 0.00339 µM; in test [3], 3.96 µM and 10.4 µM; in [4], 1.45 µM and 11.5 µM; in test [5] it was 6.32 µM and 13.5 µM; in [6], 2.22 µM and 18 µM; in test [7], 0.166 µM. For the same compound, the TGI was 4.26 µM in [8]; 1.89 µM and 10.9 µM in test [11]; 0.0033 µM in test [12]. Moreover, the GI50 in test [2], in test [9] and in test [10] was less than 0.0012 µM in each case.

`COc1cc2c(cc1OC)C(=O)N(c1ccc(OCCN3CCCC3)cc1)C2=O`: the TGI in test [1], in [2], in [3], in test [4], in test [5] and in test [6] was greater than 100 µM in each case. Further, the TGI in test [7], in [8], in [9], in [10], in [11] and in [12] was greater than 100 µM each time.

As for `S=c1[nH]n2c(COc3cc(Cl)c(OCc4nnc5sc(=S)[nH]n45)cc3Cl)nnc2s1`, the TGI in test [1], in [2], in [3], in test [4], in test [5] and in [6] was greater than 100 µM each time. For the same compound, the TGI in [7] was greater than 100 µM; in test [8], greater than 100 µM; in [9], greater than 100 µM; in test [10], greater than 100 µM; in test [11] it was greater than 100 µM; in [12], 40.8 µM.

`NC(N)=NCCCC(NC(=O)c1c2ccccc2nc2ccccc12)C(=O)O` (centres undefined): the TGI in test [1], in test [2], in test [3], in test [4], in test [5] and in test [6] was greater than 100 µM each time. Moreover, the TGI in [7], in test [8], in [9], in test [10], in [11] and in test [12] was greater than 100 µM throughout.

For the compound `Oc1ccc(SCc2cc(O)ccc2O)cc1`, the TGI in test [1] was 28.6 µM; in test [2], greater than 100 µM; in test [3] it was 25.6 µM; in test [4], greater than 52.7 µM; in test [5], greater than 100 µM; in [6] it was greater than 50.3 µM. Further, the TGI is 27.1 µM in test [7]; greater than 47.2 µM in [8]; greater than 52.9 µM in [9]; 35.5 µM in test [10]; 26.8 µM in test [11]; 27.4 µM in test [12].

Regarding `Cc1ccc2nc(C(=O)O)c(=O)[nH]c2c1`, the TGI in test [1], in [2], in test [3], in test [4], in [5] and in test [6] was greater than 100 µM in each case. Also, the TGI in test [7], in [8], in test [9], in test [10], in [11] and in test [12] was greater than 100 µM throughout.

With `CCOC(=O)C1C(c2ccc(OC)cc2)c2c([nH]n(-c3ccccc3)c2=O)CC1(C)O` (centres undefined), the TGI in test [1], in test [2], in [3], in test [4], in [5] and in [6] was greater than 100 µM each time. Moreover, the TGI is greater than 100 µM in [7]; greater than 100 µM in test [8]; 6.35 µM in test [9]; greater than 100 µM in test [11]; greater than 100 µM in [12].

Consider `COc1cc2c(cc1OC)C(=O)/C(=C/c1ccc(N(C)C)cc1)CC2`, for which the TGI in test [1], in test [2], in test [3], in test [4], in test [5] and in [6] was greater than 10 µM in each case. For the same compound, the TGI in [7], in test [8], in test [9], in [10], in test [11] and in test [12] was greater than 10 µM in each case.

Turning to `CCC1CN2CCc3c([nH]c4ccccc34)[C@@](C(=O)OC)(c3cc4c(cc3OC)N(C)C3C(O)(C(=O)OC)C(C(=O)OC)C5(CC)C=CCN6CCC43C65)C[C@@H](C2)[C@@H]1C(C)(C)C` (some centres undefined), the TGI was 0.424 µM in test [1]; greater than 4.43 µM in test [2]; greater than 10 µM in test [3]; 3.26 µM in [4]; greater than 10 µM in [5]; greater than 7.97 µM in [6]. Further, the TGI is 0.462 µM in test [7]; 8.19 µM in test [8]; 8.12 µM in test [9]; 0.902 µM in test [10]; greater than 10 µM in test [11]; greater than 10 µM in test [12].

Regarding `Cc1cc2occ(S(=O)(=O)NC(=O)Nc3ccc(Cl)cc3)c(=O)c2c(=O)o1`, the TGI in test [1], in test [2], in test [3], in test [4], in test [5] and in test [6] was greater than 100 µM throughout. Also, the TGI in [7], in [8], in test [9], in test [10], in test [11] and in test [12] was greater than 100 µM in each case.

Take `CCc1cc2c(c3c1CCCC3=O)CC1(C2)Cc2cc(CC)c3c(c2C1)C(=O)CCC3`: the TGI in test [1], in test [2], in test [3], in [4], in [5] and in [6] was greater than 100 µM each time. Besides, the TGI in test [7], in test [8], in test [9], in test [10], in test [11] and in [12] was greater than 100 µM each time.

On to `COc1cccc(N=NN2CCCC2)c1`, for which the TGI in test [1], in [2], in test [3], in test [4], in test [6] and in test [7] was greater than 100 µM throughout. In addition, the TGI in [8], in test [9], in [10], in [11] and in test [12] was greater than 100 µM in each case.

For the compound `O=C1C2CC[C@@H]3C(=O)C(Cl)(Cl)[C@@H]3CCC2C1(Cl)Cl` (some centres undefined), the TGI in test [1], in [2], in [3], in [4], in [5] and in [6] was greater than 100 µM in each case. Besides, the TGI in test [7] is greater than 100 µM; in [8], greater than 100 µM; in test [9] it was 74.7 µM; in [10] it was greater than 100 µM; in test [11] it was greater than 100 µM; in test [12], greater than 91.1 µM.

For `CC(NNC(=O)c1ccncc1)c1ccc(Cl)cc1Cl` (centres undefined), the TGI in [1], in [2], in test [3], in [4], in test [5] and in test [6] was greater than 100 µM in each case. Besides, the TGI in test [7], in test [8], in [9], in test [10], in test [11] and in test [12] was greater than 100 µM throughout.

In the case of `CC(=O)O[C@H]1C(=O)[C@@]2(C)[C@H]([C@H](OC(=O)c3ccco3)[C@]3(O)C[C@H](OC(=O)[C@H](O)[C@@H](NC(=O)c4ccccc4)c4ccccc4)C(C)=C1C3(C)C)[C@]1(OC(C)=O)CO[C@@H]1C[C@@H]2O`, the TGI in test [1] is 0.0602 µM; in test [2] it was 0.131 µM; in [3], greater than 25 µM; in test [4], greater than 23.5 µM; in [5] it was greater than 25 µM; in [6], greater than 25 µM. Besides, the TGI in [7] is 0.0591 µM; in test [8] it was greater than 25 µM; in test [9], greater than 25 µM; in test [10], greater than 5.05 µM; in test [11], greater than 25 µM; in [12], greater than 25 µM.

As for `O=C1C=C/C(=C/[C@H]2SSC=C[C@]23C=CC(=O)C3)C1`, the TGI in [1] is 51.3 µM; in test [2], greater than 100 µM; in test [3], 48 µM; in [4], greater than 84.9 µM; in test [5], 63.2 µM; in test [6], 99.8 µM. The TGI is greater than 53.1 µM in test [7]; 61.5 µM in test [8]; 7.16 µM in test [9]; 29.2 µM in test [10]; 55.5 µM in test [11]; greater than 100 µM in test [12].

With `C=CCOC(=O)N1c2ccc(O)cc2[C@@]23O[C@@]24[C@@H]1C#C/C=C\C#C[C@]3(O)C(=O)C[C@@H]4C`, the TGI in [1], in [2], in test [3], in test [4], in test [5] and in test [6] was greater than 100 µM each time. In addition, the TGI is greater than 100 µM in [7]; greater than 100 µM in test [8]; 49.4 µM in test [9]; greater than 100 µM in test [10]; greater than 100 µM in test [11]; greater than 100 µM in test [12].

In the case of `C/C(Nc1ccc(Cl)cc1)=C1/CCOC1=O`, the TGI was greater than 100 µM in [1]; 60.3 µM in test [2]; greater than 100 µM in test [3]; greater than 100 µM in [4]; greater than 49 µM in test [5]; greater than 100 µM in test [6]. In addition, the TGI was greater than 100 µM in [7]; greater than 100 µM in test [8]; greater than 76.5 µM in [9]; greater than 100 µM in test [10]; greater than 100 µM in test [11]; greater than 100 µM in test [12].

Regarding `COc1ccc(/C=N/NC(=S)Nc2cc(C)ccc2OC)cc1`, the TGI in [1] was 70.7 µM; in [2], 27.6 µM; in [3], greater than 100 µM; in test [4] it was greater than 100 µM; in test [5], greater than 100 µM; in [7], greater than 100 µM. Moreover, the TGI in [8] was 72 µM; in test [9] it was 29.2 µM; in [11] it was greater than 100 µM; in test [12] it was greater than 100 µM.

Regarding `CCOC(=O)c1cc2c3c(cc(OC)c2[nH]1)N(C(=O)OCC)CC3`, the TGI in test [1], in test [2], in test [3], in test [4], in [5] and in [6] was greater than 100 µM in each case. The TGI in test [7], in [8], in test [9], in test [10] and in test [12] was greater than 100 µM each time.

As to `Cc1nc(Cc2n[nH]c(C)n2)n[nH]1`, the TGI in test [1], in test [2], in test [3], in test [4], in test [5] and in [6] was greater than 100 µM each time. Moreover, the TGI in test [7], in [8], in test [9], in test [11] and in test [12] was greater than 100 µM each time.

The values above are taken from PubChem BioAssay (NCI).
